Data reported in patent publication US8258098B2, “Antitumoral treatments” (Pharma Mar, S.A., priority 2006, dated 2012).

Key:
A549 cells = test: MTS cytotoxicity assay, 72 hours, single agents and combinations with Aplidine; assay type: cell-based; conditions: Homo sapiens, A549, 72 hours drug exposure, read-out: IC50 (Molar)
Experimental: (§1) Day before plating cells all cultures were fed with fresh, complete growth media. On the harvest (plating) day cells were counted by Trypan Blue exclusion staining method (basic cell culture). Cells were harvested and seeded in 96 well microtiter plates at 10,000 cells per well in 190 μL of media and incubated for 24 hours to allow the cells to attach before drug addition. Cells were treated with the drugs and the cytotoxic effect was measured by the MTS Assay (Tetrazolium), which is a colorimetric method for determining the number of viable cells. After the 72 hours of incubation with drug, 25 μL of MTS+PMS solution was added to each microtiter well and incubated for 4 hours at 37° C. Plates were then removed from incubator and placed on plate shaker for 5 minutes (covered with aluminium foil for protection from light). Optical densities were read at 490 nm on spectrophotometer plate reader.
(§2) The microtiter plates were incubated for 72 hrs, at 5% CO2 and 37° C. The cytotoxic effect was measured by MTS Assay. Optical densities read at 490 nm. Normalized data was plotted and interpreted as described. Data was analysed as: • 1. Prism (Graphpad) software program was used to normalized the data to control values (100%=cell growth in the absence of agent (drug); 0%=blank control). • 2. Data normalized were plotted as scatter plots.
(§3) Conversely, antagonism was concluded when inhibition was lower than both maxima. […] Statistical significance was assessed by performing a student's t-test on the inhibition at each dose ratio versus the inhibition at the maximum for each drug.
(§4) As a visual aid, response values were plotted on a scatter plot with dose ratios given on the x-axis and % response values on the y-axis. […] In cases where response values at the two endpoints were approximately equivalent, points lying above or below this predicted line of additivity could be interpreted as representing antagonistic or synergistic drug interaction, respectively.

HL60 cells = test: as above; assay type: cell-based; conditions: Homo sapiens, HL-60, HL60, 72 hours drug exposure, read-out: IC50 (Molar)
Experimental: as §1, §2, §3, §4

HT29 cells = test: as above; assay type: cell-based; conditions: Homo sapiens, HT-29, HT29, 72 hours drug exposure, read-out: IC50 (Molar)
Experimental: as §1, §2, §3, §4

MOLT3 cells = test: as above; assay type: cell-based; conditions: Homo sapiens, MOLT-3, MOLT3, 72 hours drug exposure, read-out: IC50 (Molar)
Experimental: as §1, §2, §3, §4

MX1 cells = test: as above; assay type: cell-based; conditions: Homo sapiens, MX1, 72 hours drug exposure, read-out: IC50 (Molar)
Experimental: as §1, §2, §3, §4

PC3 cells = test: as above; assay type: cell-based; conditions: Homo sapiens, PC-3, PC3, 72 hours drug exposure, read-out: IC50 (Molar)
Experimental: as §1, §2, §3, §4

[1] = test system: LOX-IMVI melanoma tumor xenografts; test: Net tumor volume in tumor xenografts; assay type: in vivo, female athymic mice; conditions: DTIC 30 mg/kg, Carboplatin 25 mg/kg, i.p.
From the text: (§5) Athymic nude female mice were received from Harlan Sprague Dawley, Madison, Wis. at 4-5 weeks of age. Mice were acclimated to the laboratory for at least one week prior to implantation of tumor. Animals were housed in static cages with food and water allowed ad libitum. Experimental animals were implanted with either tumor fragments derived from transplantation established human tumors or with cells obtain directly from in vitro culture. Tumors were implanted subcutaneously on the right flank on Day 0.
(§6) Tumor size measurements were recorded twice weekly beginning on day 4 or 5 using vernier calipers. The formula to calculate volume for a prolate ellipsoid was used to estimate tumor volume from 2-dimensional tumor measurements: tumor volume (mm^3)=(length×width^2)÷2. Assuming unit density, volume was converted to weight (i.e., 1 mm^3=1 mg). […] Treatments were initiated and administered on an individual body weight basis. A dose range finding study was performed on each tumor model to determine the appropriate dose level of each compound used in the combination studies.

[2] = test system: MRI-H187 melanoma tumor xenografts; test: Net tumor volume in tumor xenografts; assay type: in vivo, female athymic mice; conditions: Aplidine 50 μg/kg, DTIC 40 mg/kg, Carboplatin 25 mg/kg, i.p.
From the text: as §5, §6

SKBR3 cells = test: MTS cytotoxicity assay, 72 hours, single agents and combinations with Aplidine; assay type: cell-based; conditions: Homo sapiens, SK-BR-3, SKBR3, 72 hours drug exposure, read-out: IC50 (Molar)
Experimental: as §1, §2, §3, §4

[3] = test system: CaKi-1 renal tumor xenografts; test: Net tumor volume in tumor xenografts; assay type: in vivo, female athymic mice; conditions: Aplidine 50 μg/kg i.p., Avastin 5.0 mg/kg i.p., IL-2 2 μg/mouse i.p., INF-α 200,000 U/mouse s.c.
From the text: as §5, §6

[4] = test system: MRI-H121 renal tumor xenografts; test: Net tumor volume in tumor xenografts; assay type: in vivo, female athymic mice; conditions: Aplidine 25 μg/kg i.p., Avastin […] i.p., IL-2 1 μg/mouse i.p., INF-α 200,000 U/mouse s.c.
From the text: as §5, §6

## O=c1[nH]cc(F)c(=O)[nH]1 [5-FU, 5-fluorouracil]
A549 cells
  IC50: 1400 µM
HL60 cells
  IC50: 1200 µM
HT29 cells
  IC50: 880 µM
MOLT3 cells
  IC50: 11 µM
MX1 cells
  IC50: > 100 µM
PC3 cells
  IC50: 220 µM

## CN(C)/N=N/c1[nH]cnc1C(N)=O [DTIC, dacarbazine]
[1]; DAY 8, Aplidine 50 μg/kg
  Net Tumor Volume ± S.E.M.: 208 ± 25 mg
[1]; DAY 12, Aplidine 50 μg/kg
  Net Tumor Volume ± S.E.M.: 699 ± 57 mg
[1]; DAY 14, Aplidine 50 μg/kg
  Net Tumor Volume ± S.E.M.: 950 ± 57 mg
[1]; DAY 19, Aplidine 50 μg/kg
  Net Tumor Volume ± S.E.M.: 2695 ± 560 mg
[2]; MRI-H187, DAY 20
  Net Tumor Volume ± S.E.M.: 148 ± 14 mg
[2]; MRI-H187, DAY 24
  Net Tumor Volume ± S.E.M.: 264 ± 60 mg
[2]; MRI-H187, DAY 27
  Net Tumor Volume ± S.E.M.: 377 ± 98 mg
[2]; MRI-H187, DAY 31
  Net Tumor Volume ± S.E.M.: 558 ± 152 mg
[2]; MRI-H187, DAY 34
  Net Tumor Volume ± S.E.M.: 681 ± 187 mg
[2]; MRI-H187, DAY 38
  Net Tumor Volume ± S.E.M.: 927 ± 274 mg
[2]; MRI-H187, DAY 46
  Net Tumor Volume ± S.E.M.: 1508 ± 427 mg
[2]; MRI-H187, DAY 49
  Net Tumor Volume ± S.E.M.: 1804 ± 507 mg
[2]; MRI-H187, DAY 52
  Net Tumor Volume ± S.E.M.: 2036 ± 525 mg
[2]; MRI-H187, DAY 55
  Net Tumor Volume ± S.E.M.: 2123 ± 558 mg
[2]; MRI-H187, DAY 59
  Net Tumor Volume ± S.E.M.: 2166 ± 563 mg
[2]; MRI-H187, DAY 62
  Net Tumor Volume ± S.E.M.: 2333 ± 433 mg
[2]; MRI-H187, DAY 66
  Net Tumor Volume ± S.E.M.: 2508 ± 536 mg

## CC(=O)O[C@H]1C(=O)[C@@]2(C)[C@H]([C@H](OC(=O)c3ccccc3)[C@]3(O)C[C@H](OC(=O)[C@H](O)[C@@H](NC(=O)c4ccccc4)c4ccccc4)C(C)=C1C3(C)C)[C@]1(OC(C)=O)CO[C@@H]1C[C@@H]2O [paclitaxel]
A549 cells
  IC50: 0.013 µM
HL60 cells
  IC50: 0.016 µM
HT29 cells
  IC50: 0.005 µM
MOLT3 cells
  IC50: 77 µM
MX1 cells
  IC50: 9.4 µM
SKBR3 cells
  IC50: > 100 µM

## Avastin ®: Bevacizumab (Avastin®), standard of care agent
[3]; CaKi-1, DAY 13
  Net Tumor Volume ± S.E.M.: 105 ± 3 mg
[3]; CaKi-1, DAY 15
  Net Tumor Volume ± S.E.M.: 162 ± 14 mg
[3]; CaKi-1, DAY 19
  Net Tumor Volume ± S.E.M.: 286 ± 49 mg
[3]; CaKi-1, DAY 22
  Net Tumor Volume ± S.E.M.: 398 ± 53 mg
[3]; CaKi-1, DAY 26
  Net Tumor Volume ± S.E.M.: 632 ± 79 mg
[3]; CaKi-1, DAY 29
  Net Tumor Volume ± S.E.M.: 811 ± 90 mg
[3]; CaKi-1, DAY 33
  Net Tumor Volume ± S.E.M.: 985 ± 111 mg
[3]; CaKi-1, DAY 36
  Net Tumor Volume ± S.E.M.: 1251 ± 109 mg
[3]; CaKi-1, DAY 41
  Net Tumor Volume ± S.E.M.: 1654 ± 189 mg
[3]; CaKi-1, DAY 47
  Net Tumor Volume ± S.E.M.: 2170 ± 253 mg
[3]; CaKi-1, DAY 50
  Net Tumor Volume ± S.E.M.: 2842 ± 379 mg
[4]; MRI-H121, DAY 11
  Net Tumor Volume ± S.E.M.: 106 ± 7 mg
[4]; MRI-H121, DAY 14
  Net Tumor Volume ± S.E.M.: 171 ± 16 mg
[4]; MRI-H121, DAY 18
  Net Tumor Volume ± S.E.M.: 306 ± 27 mg
[4]; MRI-H121, DAY 19
  Net Tumor Volume ± S.E.M.: 299 ± 39 mg
[4]; MRI-H121, DAY 21
  Net Tumor Volume ± S.E.M.: 365 ± 39 mg
[4]; MRI-H121, DAY 26
  Net Tumor Volume ± S.E.M.: 503 ± 57 mg
[4]; MRI-H121, DAY 29
  Net Tumor Volume ± S.E.M.: 678 ± 77 mg
[4]; MRI-H121, DAY 32
  Net Tumor Volume ± S.E.M.: 899 ± 93 mg
[4]; MRI-H121, DAY 35
  Net Tumor Volume ± S.E.M.: 898 ± 69 mg
[4]; MRI-H121, DAY 39
  Net Tumor Volume ± S.E.M.: 1240 ± 124 mg
[4]; MRI-H121, DAY 42
  Net Tumor Volume ± S.E.M.: 1383 ± 148 mg
